Assays:
[1] = tested on: human pancreatic adenocarcinomas; format: in vivo; settings: for % of CD44+c-Met+ cancer stem cells in tumor: flow cytometry after 4 weeks treatment; for tumor growth during the 4 week period of treatment: subcutaneous tumor volume, weekly, FIG. 8B; for effect on cancer stem cell population (in words): CD44+c-Met+, flow cytometry; for tumor growth following cessation of treatment: versus untreated tumors
Protocol: Samples of human pancreatic adenocarcinomas were obtained. Within 60 minutes following surgical resection, tumors were suspended in sterile RPMI medium 1640 (available from Sigma-Aldrich®), mechanically dissociated using scissors, then minced with a sterile scalpel blade over ice to yield 2×2 mm pieces. The tumor pieces were washed with serum-free PBS before implantation. Eight-week-old male NOD/SCID mice were anesthetized using an i.p. injection of 100 mg/kg ketamine and 5 mg/kg xylazine. NOD/SCID mice are publically available from Charles River Laboratories International in Wilmington, Mass. A 5-mm incision was then made in the skin overlying the mid-abdomen, and three pieces of tumor were implanted subcutaneously. The skin incision was closed with absorbable suture. The mice were monitored weekly for tumor growth for 16 to 20 weeks. After establishment of xenografts, studies were performed on passage 2 tumors.
Xenograft tumors or primary human tumors were cut up into small pieces with scissors, and then minced completely using sterile scalpel blades. To obtain single cell suspensions, the resultant minced tumor pieces were mixed with ultra-pure collagenase IV (Worthington Biochemical, Lakewood, N.J.) in medium 199 (200 units of collagenase per ml) and allowed to incubate at 37° C. for 1 to 1.5 hours for enzymatic dissociation. The specimens were further mechanically dissociated every 10 minutes by pipetting with a 10-ml pipette. At the end of the incubation, cells were filtered through a 40-μm nylon mesh, washed with HBSS/20% FBS, and then washed twice with HBSS.
Sorted cells or bulk pancreatic tumor cells were washed with serum free HBSS and suspended in serum free-RPMI1640/Matrigel mixture (1:1 volume), followed by injection into the subcutaneous tissue of the right and left mid-abdominal area using a 27-gauge needle. In separate experiments, mice were anesthetized with an i.p. injection of 100 mg/kg ketamine and 5 mg/kg xylazine, and a small median laparotomy was performed. Five thousand sorted cells or 1-5×10^5 bulk tumor cells resuspended in PBS/Matrigel mixture (1:1) in a volume of 100 µl were injected into the tail of the pancreas using a 30-gauge needle. PBS stands for phosphate buffered saline, which can be obtained from Thermo Fisher Scientific Inc. Six mice were inoculated per test group. Animals then underwent autopsy, and tumor growth was accessed after 4 to 8 weeks. Tissues were fixed in formaldehyde and were examined histologically or dissociated to generate single cell suspensions for further study.
[…]. CD44 and c-Met are both markers on pancreatic cancer stem cells.
. Subcutaneous tumor volume was assessed weekly. […] Half of the mice in each group were euthanized 4 weeks after initiation of treatment, and the tumors were dissociated and examined using flow cytometry to determine the percentage of c-Met+/CD44+ cancer stem cells within the tumors. The remaining mice were kept for an additional 8 weeks following cessation of treatment, and tumor volume was measured weekly. […]. […]. […]
Tumor size was measured weekly. Three mice of each group were euthanized after 4 weeks treatment for analysis of cancer stem cells, and the other mice were followed to monitor tumor growth for an additional 8 weeks. […] In FIG. 8B, the average tumor size±SEM from three separate tumors is presented. FIG. 8C depicts a graph of CSC percentage in different treatment groups. The percentage of the c-Met+/CD44+ tumorigenic cancer cell population in the total cancer cell population is indicated for each treatment.

[2] = tested on: primary human pancreatic cancer; assay: Orthotopic implants of primary human pancreatic cancer in the pancreatic tail of NOD/SCID mice: bioluminescent tumor growth and cancer stem cells; format: in vivo; settings: for effect on cancer stem cell population (in words): CD44+CD24+ESA+; for effect on cancer stem cell population (in words) / % of CD44+CD24+ESA+ cancer stem cells in tumor: flow cytometry; for % of CD44+CD24+ESA+ cancer stem cells in tumor: table title says subcutaneous xenograft tumor, text cites it for orthotopic implants; for tumor growth during the 4 week treatment: orthotopic tumors, bioluminescent imaging, versus controls
Protocol: Sorted cells or bulk pancreatic tumor cells were washed with serum free HBSS and suspended in serum free-RPMI1640/Matrigel mixture (1:1 volume), followed by injection into the subcutaneous tissue of the right and left mid-abdominal area using a 27-gauge needle. In separate experiments, mice were anesthetized with an i.p. injection of 100 mg/kg ketamine and 5 mg/kg xylazine, and a small median laparotomy was performed. Five thousand sorted cells or 1-5×10^5 bulk tumor cells resuspended in PBS/Matrigel mixture (1:1) in a volume of 100 µl were injected into the tail of the pancreas using a 30-gauge needle. […] Animals then underwent autopsy, and tumor growth was accessed after 4 to 8 weeks.
To validate the findings with bioluminescent imaging, mice were euthanized with carbon dioxide inhalation, and autopsies were performed to assess the extent of primary tumor growth and metastasis.
The same three pancreatic cancers used for the subcutaneous tumor implantation experiments were infected with a lentivirus expressing luciferase to allow imaging in real time, and cells were injected into the pancreatic tail.
Tumor size and volume were measured weekly using Xenogen IVIS 200 imaging system throughout the experiment period.

[3] = Compound 1 30 mg/kg/day, GEM 100 mg/kg/twice weekly

SMILES | % of CD44+c-Met+ cancer stem cells in tumor [1, 3] [%] | tumor growth during the 4 week period of treatment [1] | increase of the c-Met+CD44+ population ([1]; subcutaneous tumors, 4 weeks treatment, GEM 100 mg/kg/twice weekly) [%] | effect on cancer stem cell population (in words) ([1]; subcutaneous tumors) | tumor growth following cessation of treatment ([1]; subcutaneous tumors) | effect on cancer stem cell population (in words) [2] | % of CD44+CD24+ESA+ cancer stem cells in tumor [2] [%] | tumor growth during the 4 week treatment [2] | decrease in CD44+c-Met+ cancer stem cell population ([1]; subcutaneous tumors, 4 weeks treatment, Compound 1 30 mg/kg/day, GEM 100 mg/kg/twice weekly) [%]
Nc1ccn([C@@H]2O[C@H](CO)[C@@H](O)C2(F)F)c(=O)n1 [GEM, gemcitabine] | 4.34 | significantly inhibited tumor growth | 48±20 | increases in the total number of pancreatic cancer stem cells | grew more slowly than the untreated tumors | increases in the total number of pancreatic cancer stem cells | 4.3 | prevented tumor growth | 
COc1cc2nccc(Oc3ccc(NC(=O)C4(C(=O)Nc5ccc(F)cc5)CC4)cc3)c2cc1OC [Compound 1, N-(4-{[6,7-bis(methyloxy)quinolin-4-yl]oxy}phenyl)-N′-(4-fluorophenyl)cyclopropane-1,1-dicarboxamide] | 0.55 | significantly inhibited tumor growth |  | significantly depleted | grew more slowly than the untreated tumors | significantly depleted | 0.61 | prevented tumor growth | 83±3
